The structures appear in SMILES notation.

Data set [1] is described as follows: Therapeutic index expressed as the ratio between CC50 and EC50. Format: cell-based. As to conditions: human, HEp-2 cells; read-out: Therapeutic index.
Data set [2] relates to HEp-2. Put plainly: Antiviral activity against respiratory syncytial virus in HEp-2 human […] epithelial carcinoma cell line. It counts as functional, cell-based.
For data set [3], the system named is HEp-2. Description: Cytotoxic activity against uninfected HEp-2 human […] epithelial carcinoma cell line. It counts as functional.

`C=C(C)n1c(=O)n(Cc2nc3ccccc3[nH]2)c2ccccc21`: in data set [1], the selectivity ratio was 38. Further, it took 0.75 µM to reach a half-maximal effect in the data set on HEp-2 [2] (EC50). This compound also had a CC50 with HEp-2 [3] of 28.4 µM.

The EC50 is the concentration needed to bring the measured effect to its halfway point. In general, CC50 refers to the concentration giving 50% cytotoxicity. A lower CC50 goes with greater toxicity to the cells.

For the origin of these results see ChEMBL document CHEMBL1147583, “Respiratory syncytial virus inhibitors. Part 2: Benzimidazol-2-one derivatives” (Bioorg Med Chem Lett, 2004).
